In patent US20260317356A1, “SMALL MOLECULE MODULATORS OF OGG1” (AZKARRA THERAPEUTICS, INC., priority 2023, published 2026):
pIC50: −log10 of the molar value.

What follows are compounds tested against hOGG1 (Homo sapiens, UniProt O15527) (assay: Biochemical fluorescence assay to measure enzymatic activity of hOGG1 (OGG1/APEX IC50)). Settings: 1 nM OGG1+2 nM APEX+6 nM dsDNA (8-oxo-dG substrate); pH 7.5; RT 40 min; read-out: OGG1/APEX IC50.
Design: Protein His-hOGG1 (12-323) was prepared; His (N); host or cells: E. coli
Description: Biological Example 1: Biochemical Assay to Measure Enzymatic Activity of hOGG1 (OGG1/APEX IC50)
The reported fluorescence-based assay (Donley et al ACS Chem Biol 2015; 10 (10), 2334-2343) was modified to include hAPE1/APEX1 protein. The oligonucleotide substrate with 8-oxo-dG lesion at X was prepared (LGC Biosearch, Petaluma, CA):
Protein His-hOGG1 (12-323) was prepared by Chempartner Corporation via E. coliexpression and purification by Ni-NTA and S200 column to afford 95% purity by SDS-PAGE and SEC-HPLC analysis and hAPE1/APEX1 was purchased (SinoBiological). The assay was run in 384-well plates following the general procedure: (1) compound dilution; (2) addition of hOGG1/APEX1 to compound wells; (3) addition of DNA substrate to compound wells; (4) read Ex520/Em600 (TAMRA) fluorescence signal after 40 minutes; (5) calculate % inhibition/compound concentration; (6) calculate dose-response curve and IC50 value.
• (1) 20 mM of compound solution was prepared in DMSO; • (2) Compounds were diluted to 10 mM in DMSO in ECHO Source plate (Labcyte PP-0200), by mixing […] DMSO; • (3) 4× dilution of compounds, for 10 points, by mixing […] DMSO; and • (4) Dispensed 150 nL compounds to assay plate (Corning 3573) in column 3-22. Dispensed 150 nL DMSO to Min and Max control wells in column 1-2 and column 23-24.
• (1) Assay buffer was prepared (20 mM Tris pH 7.5, 100 mM KCl, 0.1% BSA, 0.01% Tween). • (2) […] buffer was added to Min control wells (Column 1-2). • (3) Enzyme was diluted to 2× with buffer (2 nM OGG1+4 nM APEX1). Dispensed […] (except Min control wells). Shake at 500 rpm at RT for 20 min. • (4) DNA substrate diluted to 2× with buffer (12 nM). Dispensed […]. Final concentration: 1 nM OGG1+2 nM APEX+6 nM dsDNA. Shake at RT for 40 min. • (5) Ex520/Em600 (TAMRA) was read.
• (1) Calculated respective mean of Max and Min control wells. • (2) Converted data to percentage inhibition.
Inhibition (%)=(Max mean−value)/(Max mean−Min mean)×100% • (3) Calculated sigmoidal curve (3-parameter) and IC50 (using GraphPad Prism software).

hOGG1, sequence (O15527 12-323): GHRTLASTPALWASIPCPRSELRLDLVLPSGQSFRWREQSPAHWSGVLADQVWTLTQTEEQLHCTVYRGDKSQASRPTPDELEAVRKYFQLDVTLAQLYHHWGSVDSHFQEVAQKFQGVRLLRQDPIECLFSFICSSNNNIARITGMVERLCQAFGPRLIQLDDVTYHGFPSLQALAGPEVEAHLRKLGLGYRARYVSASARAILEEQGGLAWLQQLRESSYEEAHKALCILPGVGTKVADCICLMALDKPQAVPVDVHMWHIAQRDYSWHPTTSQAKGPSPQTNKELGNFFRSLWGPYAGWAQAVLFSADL

SMILES | pIC50
CCOC(=O)c1ccc2c(c1)CN([C@H]1CC[C@@H](C(=O)Nc3ccc(C)c(OC)c3)CC1)C2=O [Example 171, Ethyl 2-((1s,4s)-4-(3-methoxy-4-methylphenylcarbamoyl)cyclohexyl)-1-oxoisoindoline-5-carboxylate] | < 5.00
COc1cc(NC(=O)[C@]2(C)CC[C@H](N3Cc4c(C)cccc4NC3=O)CC2)ccc1C (single isomer, unassigned) [Example 101, (1s,4s)-N-(3-methoxy-4-methylphenyl)-1-methyl-4-(5-methyl-2-oxo-1,2-dihydroquinazolin-3(4H)-yl)cyclohexanecarboxamide] | > 7.00
COc1cc(NC(=O)[C@H]2CC[C@@H](N3Cc4c(ccc(N)c4C)NC3=O)CC2)ccc1C [Example 46, (1s,4s)-4-(6-Amino-5-methyl-2-oxo-1,2-dihydroquinazolin-3(4H)-yl)-N-(3-methoxy-4-methylphenyl)cyclohexanecarboxamide] | 5.00 to 6.00
COc1cc(NC(=O)[C@H]2CC[C@@H](N3Cc4c(cccc4C4CCC4)C3=O)CC2)ccc1C [Example 152, (1s,4s)-4-(4-Cyclobutyl-1-oxoisoindolin-2-yl)-N-(3-methoxy-4-methylphenyl)cyclohexanecarboxamide] | < 5.00
Cc1cccc2c1CN([C@H]1CC[C@@H](C(=O)Nc3cc4ccccc4[nH]3)CC1)C2=O [Example 273, (1s,4s)-N-(1H-indol-2-yl)-4-(4-methyl-1-oxoisoindolin-2-yl)cyclohexanecarboxamide] | 6.00 to 7.00
COc1cc(NC(=O)[C@H]2CC[C@@H](N3Cc4c(Cl)cccc4NC3=O)CC2)ccc1C [Example 68, (1s,4s)-4-(5-chloro-2-oxo-1,2-dihydroquinazolin-3(4H)-yl)-N-(3-methoxy-4-methylphenyl)cyclohexanecarboxamide] | 6.00 to 7.00
COc1cc(NC(=O)[C@H]2CC[C@@H](N3Cc4c(C)cccc4C3=O)CC2)ccc1CO [Example 145, (1s,4s)-N-(4-(Hydroxymethyl)-3-methoxyphenyl)-4-(4-methyl-1-oxoisoindolin-2-yl)cyclohexanecarboxamide] | 5.00 to 6.00
COc1cc(NC(=O)[C@H]2CC[C@@H](N3Cc4cc(Br)ccc4C3=O)CC2)ccc1C [Example 170, (1s,4s)-4-(5-Bromo-1-oxoisoindolin-2-yl)-N-(3-methoxy-4-methylphenyl)cyclohexanecarboxamide] | < 5.00
COc1cc(NC(=O)[C@H]2CC[C@@H](N3Cc4c(C)cc(NCCN(C)C)cc4NC3=O)CC2)ccc1C [Example 96, (1s,4s)-4-(7-(2-(dimethylamino)ethylamino)-5-methyl-2-oxo-1,2-dihydroquinazolin-3(4H)-yl)-N-(3-methoxy-4-methylphenyl)cyclohexanecarboxamide] | > 7.00
COc1cc(NC(=O)[C@H]2CC[C@@H](N3Cc4c(C)ccc(OCC5(C)COC5)c4NC3=O)CC2)ccc1C [Example 23, (1s,4s)-N-(3-Methoxy-4-methylphenyl)-4-(5-methyl-8-((3-methyloxetan-3-yl)methoxy)-2-oxo-1,2-dihydroquinazolin-3(4H)-yl)cyclohexanecarboxamide] | 6.00 to 7.00
COc1cc(NC(=O)[C@H]2CC[C@@H](N3Cc4c(Br)cc(N)cc4C3=O)CC2)ccc1C [Example 165, (1s,4s)-4-(6-Amino-4-bromo-1-oxoisoindolin-2-yl)-N-(3-methoxy-4-methylphenyl)cyclohexanecarboxamide] | 6.00 to 7.00
COc1cc(NC(=O)[C@H]2CC[C@@H](N3Cc4c(C)ccc(O)c4NC3=O)CC2)ccc1C [Example 61, (1s,4s)-4-(8-hydroxy-5-methyl-2-oxo-1,2-dihydroquinazolin-3(4H)-yl)-N-(3-methoxy-4-methylphenyl)cyclohexanecarboxamide] | > 7.00
C=Cc1cccc2c1CN([C@H]1CC[C@@H](C(=O)Nc3ccc(C)c(OC)c3)CC1)C2=O [Example 155, (1s,4s)-N-(3-Methoxy-4-methylphenyl)-4-(1-oxo-4-vinylisoindolin-2-yl)cyclohexanecarboxamide] | 6.00 to 7.00
COc1cc(NC(=O)[C@H]2CC[C@@H](N3Cc4c(cccc4OC)NC3=O)CC2)ccc1C [Example 71, (1s,4s)-4-(5-methoxy-2-oxo-1,2-dihydroquinazolin-3(4H)-yl)-N-(3-methoxy-4-methylphenyl)cyclohexanecarboxamide] | 5.00 to 6.00
Cc1cccc2c1CN([C@H]1CC[C@@H](C(=O)Nc3ccn(C)c(=O)c3)CC1)C2=O [Example 252, (1s,4s)-4-(4-Methyl-1-oxoisoindolin-2-yl)-N-(1-methyl-2-oxo-1,2-dihydropyridin-4-yl)cyclohexanecarboxamide] | < 5.00
COc1cc(NC(=O)[C@H]2CC[C@@H](N3Cc4c(ccnc4C)NC3=O)CC2)ccc1C [Example 43, (1s,4s)-N-(3-Methoxy-4-methylphenyl)-4-(5-methyl-2-oxo-1,2-dihydropyrido[4,3-d]pyrimidin-3(4H)-yl)cyclohexanecarboxamide] | > 7.00
Cc1cccc2c1CN([C@H]1CC[C@@H](C(=O)Nc3ccc(Cl)c(F)c3)CC1)C2=O [Example 241, (1s,4s)-N-(4-Chloro-3-fluorophenyl)-4-(4-methyl-1-oxoisoindolin-2-yl)cyclohexanecarboxamide] | 6.00 to 7.00
COc1cc(NC(=O)[C@H]2CC[C@@H](N3Cc4c(C)cc(NCC5(F)CNC5)cc4C3=O)CC2)ccc1C [Example 140, (1s,4s)-4-(6-(((3-Fluoroazetidin-3-yl)methyl)amino)-4-methyl-1-oxoisoindolin-2-yl)-N-(3-methoxy-4-methylphenyl)cyclohexanecarboxamide] | > 7.00
COc1cc(NC(=O)[C@H]2CC[C@@H](N3Cc4c(ccc(CN)c4C)NC3=O)CC2)ccc1C [Example 57, (1s,4s)-4-(6-(Aminomethyl)-5-methyl-2-oxo-1,2-dihydroquinazolin-3(4H)-yl)-N-(3-methoxy-4-methylphenyl)cyclohexanecarboxamide] | 5.00 to 6.00
COc1cc(NC(=O)[C@H]2CC[C@@H](n3[nH]c4c(C)cccc4c3=O)CC2)ccc1C [Example 118, (1s,4s)-N-(3-Methoxy-4-methylphenyl)-4-(7-methyl-3-oxo-1,3-dihydro-2H-indazol-2-yl)cyclohexane-1-carboxamide] | > 7.00
Cc1ccc(NC(=O)[C@H]2CC[C@@H](N3Cc4c(C)cccc4C3=O)CC2)cc1C#N [Example 254, (1s,4s)-N-(3-Cyano-4-methylphenyl)-4-(4-methyl-1-oxoisoindolin-2-yl)cyclohexanecarboxamide] | 6.00 to 7.00
COc1cc(NC(=O)[C@H]2CC[C@@H](N3Cc4c(C)cc(C=O)cc4NC3=O)CC2)ccc1C [Example 78, (1s,4s)-4-(7-formyl-5-methyl-2-oxo-1,2-dihydroquinazolin-3(4H)-yl)-N-(3-methoxy-4-methylphenyl)cyclohexanecarboxamide] | > 7.00
Cc1cccc2c1CN([C@H]1CC[C@@H](C(=O)Nc3ccc(=O)n(C)c3)CC1)C2=O [Example 246, (1s,4s)-4-(4-Methyl-1-oxoisoindolin-2-yl)-N-(1-methyl-6-oxo-1,6-dihydropyridin-3-yl)cyclohexanecarboxamide] | < 5.00
Cc1cccc2c1CN([C@H]1CC[C@@H](C(=O)Nc3ccc4nc[nH]c4c3)CC1)C2=O [Example 272, (1s,4s)-N-(1H-benzo[d]imidazol-6-yl)-4-(4-methyl-1-oxoisoindolin-2-yl)cyclohexanecarboxamide] | 5.00 to 6.00
